Source: US12662530B2, “Anti-ADM-antibodies binding to the free N-terminus for accelerated transition of ADM-Gly to bio-ADM in patients with ADM-Gly/ bio-ADM ratio above a threshold and combination with vitamin C” (SphingoTec GmbH, priority 2020, dated 2026)

How the values were obtained:
native PAM = test: ADM maturation activity (AMA) of native PAM in Li-Heparin plasma with antibody and varying L-ascorbate; type: biochemical, human
Description: A serial antibody-dilution with concentrations of 0, 5, 10, 50, 100, 500 and 3000 μg/mL per well, respectively (in 20 μl) were pipetted into 96-well micro-titer plates. Then 160 μl PAM reaction buffer (100 mM Tris-HCl, 6.25 μM CuSO4, 62.5 μM amastatin, 250 μM leupeptin, 36 ng/mL ADM-Gly) with varying L-ascorbate concentrations was added to the wells and incubated for 15 min. Afterwards the reaction was started by addition of 20 μl of Li-Heparin plasma, containing native PAM Immediately after addition of plasma, 100 μl from each well were removed and inactivated by addition of EDTA (20 mM final concentration) to generate a t=0 minutes reaction point. Inactivated and non-inactivated samples were incubated for 40 minutes at 37° C. and the reaction in non-inactivated samples was stopped as described above. For quantification of produced ADM-NH2 the Sphingotest® bio-ADM Kit (Weber et al. 2017) was utilized according to manufacturer's manual. The ADM maturation activity (AMA) was calculated according to equation 1 (DF=dilution factor of sample matrix).

septic patients = settings: intravenous; placebo group 46%; cited from earlier work

O=C1O[C@H]([C@@H](O)CO)C(O)=C1O [ascorbate, L-ascorbic acid, reference compound]
effect on ADM maturation activities (native PAM; ascorbate in the range of 0.4-2 mM, FIG. 15): led to increasing ADM maturation activities | activity optimum of the amidating reaction (ascorbate concentration) (native PAM; with and without HAM8101): 0.8 to 2 mM | mortality at day 28 (septic patients): ~30%
